Test results taken from patent publication US20240246964A1 (Arbutus Biopharma Corporation, priority 2021, published 2024).

Molecular target: human PD-L1 (Homo sapiens (Human), UniProt Q9NZQ7)
Assay: T cell activation luciferase reporter cell culture system (T Cell Activation Assay)
Type: cell-based
Conditions: luciferase reporter assay; PD-L1 aAPC/CHO-K1 cells with PD-1 effector Jurkat T cells

human PD-L1, sequence (Q9NZQ7 19-290): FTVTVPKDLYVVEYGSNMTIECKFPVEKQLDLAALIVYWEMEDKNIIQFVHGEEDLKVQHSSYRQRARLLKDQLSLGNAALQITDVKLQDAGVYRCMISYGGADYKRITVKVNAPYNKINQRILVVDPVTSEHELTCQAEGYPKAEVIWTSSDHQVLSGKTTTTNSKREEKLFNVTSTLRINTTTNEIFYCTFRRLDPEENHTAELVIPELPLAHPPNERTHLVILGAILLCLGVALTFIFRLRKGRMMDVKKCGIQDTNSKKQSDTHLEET

EC50 [nM] | Structure (SMILES)
234 | COc1cc(-c2nccc(-c3cccc(NC(=O)c4ccc(CNC5CCN(C(C)=O)CC5)cn4)c3Cl)c2Cl)ccc1CNC1CCN(C(C)=O)CC1 [Example 673, 5-(((1-Acetylpiperidin-4-yl)amino)methyl)-N-(3-(2-(4-(((1-acetylpiperidin-4-yl)amino)methyl)-3-methoxyphenyl)-3-chloropyridin-4-yl)-2-chlorophenyl)picolinamide]
337 | COc1cc(-c2nccc(-c3cccc(NC(=O)c4ccc(CNC5CCOCC5)cn4)c3Cl)c2Cl)ccc1CNC1CCOCC1 [Example 674, N-(2-Chloro-3-(3-chloro-2-(3-methoxy-4-(((tetrahydro-2H-pyran-4-yl)amino)methyl)phenyl)pyridin-4-yl)phenyl)-5-(((tetrahydro-2H-pyran-4-yl)amino)methyl)picolinamide]
42.2 | COc1nc(-c2cccc(-c3ccnc(-c4ccc(CNC5CCN(C(C)=O)CC5)c(OC(F)F)c4)c3Cl)c2Cl)ccc1CN1CC2(C1)CN(C(C)=O)C2 [Example 690, 1-(4-((4-(4-(3-(5-((6-Acetyl-2,6-diazaspiro[3.3]heptan-2-yl)methyl)-6-methoxypyridin-2-yl)-2-chlorophenyl)-3-chloropyridin-2-yl)-2-(difluoromethoxy)benzyl)amino)piperidin-1-yl)ethan-1-one]
67.6 | COCC(=O)N1CC2(CN(Cc3ccc(-c4cccc(-c5ccnc(-c6ccc(CN7CC8(C7)CN(C(C)=O)C8)c(OC)c6)c5Cl)c4Cl)nc3OC)C2)C1 [Example 691, 1-(6-((6-(3-(2-(4-((6-Acetyl-2,6-diazaspiro[3.3]heptan-2-yl)methyl)-3-methoxyphenyl)-3-chloropyridin-4-yl)-2-chlorophenyl)-2-methoxypyridin-3-yl)methyl)-2,6-diazaspiro[3.3]heptan-2-yl)-2-methoxyethan-1-one]
43.5 | COc1cc(-c2nccc(-c3cccc(-c4ccc(CN5CC6(CCN(C(C)=O)C6)C5)c(OC)n4)c3Cl)c2Cl)ccc1CN1CCC(O)CC1 [Example 692, 1-(2-((6-(2-Chloro-3-(3-chloro-2-(4-((4-hydroxypiperidin-1-yl)methyl)-3-methoxyphenyl)pyridin-4-yl)phenyl)-2-methoxypyridin-3-yl)methyl)-2,6-diazaspiro[3.4]octan-6-yl)ethan-1-one]
69.7 | CNCc1ccc(C(=O)Nc2cccc(-c3ccnc(-c4ccc(CNC)c(OC)c4)c3Cl)c2Cl)nc1 [Example 694, N-(2-chloro-3-(3-chloro-2-(3-methoxy-4-((methylamino)methyl)phenyl)pyridine-4-yl)phenyl)-5-((methylamino)methyl)picolinamide]
169 | COc1cc(-c2nccc(-c3cccc(NC(=O)c4ccc(CNC5CC6(COC6)C5)cn4)c3Cl)c2Cl)ccc1CNC1CC2(COC2)C1 (centres unmarked) [Example 695, 5-(((2-Oxaspiro[3.3]heptan-6-yl)amino)methyl)-N-(3-(2-(4-(((2-oxaspiro[3.3]heptan-6-yl)amino)methyl)-3-methoxyphenyl)-3-chloropyridin-4-yl)-2-chlorophenyl)picolinamide]
244 | CNCc1ccc(C(=O)Nc2cccc(-c3ccnc(-c4ccc(CNC)c(OC)c4)c3Cl)c2C)nc1 [Example 696, N-(3-(3-Chloro-2-(3-methoxy-4-((methylamino)methyl)phenyl)pyridin-4-yl)-2-methylphenyl)-5-((methylamino)methyl)picolinamide]
51.5 | COc1nc(-c2cccc(-c3ccnc(-c4cc(OC)c5nc(CNCC6(O)CC6)nn5c4)c3Cl)c2Cl)ccc1CNC1CCN(C(C)=O)CC1 [Example 699, 1-(4-(((6-(2-chloro-3-(3-chloro-2-(2-((((1-hydroxycyclopropyl)methyl)amino)methyl)-8-methoxy-[1,2,4]triazolo[1,5-a]pyridin-6-yl)pyridin-4-yl)phenyl)-2-methoxypyridin-3-yl)methyl)amino)piperidin-1-yl)ethan-1-one]
124 | COc1cc(-c2nccc(-c3cccc(NC(=O)c4ccc(CNCCO)cn4)c3C)c2Cl)ccc1CNC1CCN(C(C)=O)CC1 [Example 700, N-(3-(2-(4-(((1-Acetylpiperidin-4-yl)amino)methyl)-3-methoxyphenyl)-3-chloropyridin-4-yl)-2-methylphenyl)-5-(((2-hydroxyethyl)amino)methyl)picolinamide]
410 | COc1cc(-c2nccc(-c3cccc(NC(=O)c4ccc(CN5CC6(COC6)C5)cn4)c3Cl)c2Cl)ccc1CN1CC2(COC2)C1 [Example 701, 5-((2-Oxa-6-azaspiro[3.3]heptan-6-yl)methyl)-N-(3-(2-(4-((2-oxa-6-azaspiro[3.3]heptan-6-yl)methyl)-3-methoxyphenyl)-3-chloropyridin-4-yl)-2-chlorophenyl)picolinamide]
266 | COc1cc(-c2nccc(-c3cccc(NC(=O)c4ccc(CNCCCF)cn4)c3Cl)c2Cl)ccc1CNCCCF [Example 702, N-(2-Chloro-3-(3-chloro-2-(4-(((3-fluoropropyl)amino)methyl)-3-methoxyphenyl)pyridin-4-yl)phenyl)-5-(((3-fluoropropyl)amino)methyl)picolinamide]
≥ 10000 | COc1nc(-c2ccnc(-c3cccc4c3CCC[C@@H]4Nc3nc(OC)c(CNC4(C(=O)O)CC4)cc3C(F)(F)F)c2Cl)ccc1CNC[C@@H]1CCC(=O)N1 [Example 704]
≥ 10000 | COc1cc(-c2nccc(-c3cccc4c3CCC[C@@H]4Nc3nc(OC)c(CNC4(C(=O)O)CC4)cc3C(F)(F)F)c2Cl)ccc1CNC[C@@H]1CCC(=O)N1 [Example 705, 1-(((6-(((S)-5-(3-Chloro-2-(3-methoxy-4-(((((S)-5-oxopyrrolidin-2-yl)methyl)amino)methyl)phenyl)pyridin-4-yl)-1,2,3,4-tetrahydronaphthalen-1-yl)amino)-2-methoxy-5-(trifluoromethyl)pyridin-3-yl)methyl)amino)cyclopropane-1-carboxylic acid]
≥ 10000 | COc1nc(-c2ccnc(-c3cccc4c3CCC[C@@H]4Nc3nc(OC)c(CNC[C@@H]4CCC(=O)N4)cc3C(F)(F)F)c2Cl)ccc1CNC[C@@H]1CCC(=O)N1 [Example 709, (S)-5-((((3′-Chloro-6-methoxy-2′-((S)-5-((6-methoxy-5-(((((S)-5-oxopyrrolidin-2-yl)methyl)amino)methyl)-3-(trifluoromethyl)pyridin-2-yl)amino)-5,6,7,8-tetrahydronaphthalen-1-yl)-[2,4′-bipyridin]-5-yl)methyl)amino)methyl)pyrrolidin-2-one]
≥ 10000 | COc1cc(-c2nccc(-c3cccc4c3CCC[C@@H]4Nc3nc(OC)c(CNC[C@@H]4CCC(=O)N4)cc3C(F)(F)F)c2Cl)ccc1CNC[C@@H]1CCC(=O)N1 [Example 710, (S)-5-((((6-(((S)-5-(3-Chloro-2-(3-methoxy-4-(((((S)-5-oxopyrrolidin-2-yl)methyl)amino)methyl)phenyl)pyridin-4-yl)-1,2,3,4-tetrahydronaphthalen-1-yl)amino)-2-methoxy-5-(trifluoromethyl)pyridin-3-yl)methyl)amino)methyl)pyrrolidin-2-one]
195 | COc1cc(-c2ncnc(-c3cccc(-c4ccc(CNCCO)c(OC)n4)c3Cl)c2Cl)ccc1CN1CC2(CNC(=O)C2)C1 [Example 711, 2-(4-(5-Chloro-6-(2-chloro-3-(5-(((2-hydroxyethyl)amino)methyl)-6-methoxypyridin-2-yl)phenyl)pyrimidin-4-yl)-2-methoxybenzyl)-2,6-diazaspiro[3.4]octan-7-one]
130 | COc1nc(-c2cccc(-c3ccnc(-c4cc(OC)c5nc(CNCCCF)nn5c4)c3Cl)c2Cl)ccc1CNC1CCN(C(C)=O)CC1 [Example 713, 1-(4-(((6-(2-Chloro-3-(3-chloro-2-(2-(((3-fluoropropyl)amino)methyl)-8-methoxy-[1,2,4]triazolo[1,5-a]pyridin-6-yl)pyridin-4-yl)phenyl)-2-methoxypyridin-3-yl)methyl)amino)piperidin-1-yl)ethan-1-one]
581 | COc1nc(-c2cccc(-c3ccnc(-c4cc(OC)c5nc(CN(C)CCO)nn5c4)c3Cl)c2Cl)ccc1CNC1CCN(C(C)=O)CC1 [Example 715, 1-(4-(((6-(2-Chloro-3-(3-chloro-2-(2-(((2-hydroxyethyl)(methyl)amino)methyl)-8-methoxy-[1,2,4]triazolo[1,5-a]pyridin-6-yl)pyridin-4-yl)phenyl)-2-methoxypyridin-3-yl)methyl)amino)piperidin-1-yl)ethan-1-one]
≥ 10000 | COc1cc(-c2ncnc(-c3cccc(-c4ccc(CNC5CCN(C(C)=O)CC5)c(OC)n4)c3Cl)c2OC)ccc1CNC1CCN(C(C)=O)CC1 [Example 717, 1-(4-(((6-(3-(6-(4-(((1-Acetylpiperidin-4-yl)amino)methyl)-3-methoxyphenyl)-5-methoxypyrimidin-4-yl)-2-chlorophenyl)-2-methoxypyridin-3-yl)methyl)amino)piperidin-1-yl)ethan-1-one]
≥ 10000 | COc1cc(-c2ncnc(-c3cccc(-c4ccc(CN5CC6(CNC(=O)C6)C5)c(OC)n4)c3Cl)c2OC)ccc1CN1CC2(CNC(=O)C2)C1 [Example 727, 2-((6-(2-Chloro-3-(5-methoxy-6-(3-methoxy-4-((7-oxo-2,6-diazaspiro[3.4]octan-2-yl)methyl)phenyl)pyrimidin-4-yl)phenyl)-2-methoxypyridin-3-yl)methyl)-2,6-diazaspiro[3.4]octan-7-one]
≥ 10000 | COc1cc(-c2ncnc(-c3cccc(-c4ccc(CNCCO)c(OC)n4)c3Cl)c2OC)ccc1CNCCO [Example 728, 2-((4-(6-(2-Chloro-3-(5-(((2-hydroxyethyl)amino)methyl)-6-methoxypyridin-2-yl)phenyl)-5-methoxypyrimidin-4-yl)-2-methoxybenzyl)amino)ethan-1-ol]
≥ 10000 | CNCc1ccc(-c2ccnc(-c3cccc4c3CCC[C@@H]4Nc3nc(OC)c(CNC)cc3C(F)(F)F)c2Cl)nc1OC [Example 732, (S)—N-(5-(3′-Chloro-6-methoxy-5-((methylamino)methyl)-[2,4′-bipyridin]-2′-yl)-1,2,3,4-tetrahydronaphthalen-1-yl)-6-methoxy-5-((methylamino)methyl)-3-(trifluoromethyl)pyridin-2-amine]
